In patent US6562609B1, “Cholesterol 25-hydroxylase” (Board of Regents, The University of Texas System, priority 1998, dated 2003):

Columns and labels:
[1] = tested on: cholesterol 25-hydroxylase; experiment: Inhibition of cholesterol 25-hydroxylase by sterols in transfected cells; type: cell-based; settings: for rank order of inhibition of cholesterol 25-hydroxylase: 3 μM [14C]cholesterol, cells treated with 2-hydroxypropyl-β-cyclodextrin; for decrease of enzyme activity: sterol 3 μM, equimolar with [14C]cholesterol (3 μM)
Protocol: (§1) Media from the transfected cells were collected and extracted with 8 ml of chloroform:methanol (2:1, v/v). The organic phase from each sample was taken to dryness under a stream of nitrogen and residues were dissolved in 40 μl aliquots of chloroform:methanol (2:1, v/v) and applied to 20×20 cm prescored LK5DF silica gel TLC plates (Whatman, Hillsboro, Oreg.) with preadsorbent layers. The plates were developed in ethyl acetate:toluene (4:6, v/v), and exposed to a Fuji BAS-MP phosphoimager plate overnight. Phosphoimage analysis was then performed on a Fuji BAS 1000 apparatus.
Inhibitor Studies—Transfection of CHOP cells was carried out as described above with the following exceptions. Cells were plated on Day 0 at a density of 150,000 cells/well in 6-well plates containing Medium C. On Day 1, cells were transfected with 2.7 μg of the indicated cholesterol 25-hydroxylase expression plasmid and 0.3 μg of pVA-1, using 12 μl of pfx-8 as transfection lipid. After 4 h, the lipid-DNA mixture was removed and 1.5 ml of Medium D was added. In certain experiments, this medium was aspirated and replaced on Day 2 with 1 ml per well of a 20 mg/ml solution of 2-hydroxypropyl-β-cyclodextrin (Sigma) in DMEM/Ham's F12 (1:1) medium and returned to the incubator. The cyclodextrin containing medium was replaced after 1-1.5 h with 1.5 ml of Medium D, and substrate and inhibitors were then added, each in a volume of 4.5 μl of ethanol. The concentration of [4-^14C]cholesterol substrate (specific activity=26.8 mCi/mmol) was 3 μM. Inhibitors were added to final concentrations of 3, 10 or 30 μM. Cells and/or cells plus medium were harvested at the indicated times, extracted, and the conversion of substrate into [4-^14C]25-hydroxycholesterol product was determined by thin layer chromatography as described above. The inhibitors used were cholesterol(5-cholesten-3β-ol), cholestanol (5α-cholestan-3β-ol), epicholesterol (5-cholesten-3α-ol), coprostanol(5β-cholestan-3β-ol), desmosterol(5,24-cholestadien-3β-ol), β-sitosterol(5-cholesten-24β-ethyl-3β-ol ), 25-hydroxycholesterol(cholest-5-ene-3β,25-diol), and 27-nor-25-oxocholesterol(27-nor-25-oxo-5-cholesten-3β-ol). All steroids were purchased from Steraloids Inc. (Wilton, N.H.), except cholesterol, which was from Sigma (St. Louis, Mo.).
We next tested the ability of different sterols to inhibit cholesterol 25-hydroxylase. In these experiments, 293 cells were transfected with a 25-hydroxylase cDNA, treated with 2-hydroxypropyl-β-cyclodextrin to remove endogenous cholesterol, and then incubated with 3 μM [^14C]cholesterol and the indicated concentrations of unlabeled inhibitor sterol. The rank order of inhibition for the […] sterols tested was desmosterol>cholestanol>25-hydroxycholesterol>epicholesterol>sitosterol>>coprostanol=25-oxo-27-nor-cholesterol. […] In the case of desmosterol (5,24-cholestadien-3β-ol), which can not be 25-hydroxylated due to the Δ^24 bond, this sterol appears to act as a true inhibitor.

[2] = tested on: gene transcription; settings: compared with 24- and 27-hydroxycholesterol, in vitro; cited from earlier work
[3] = target: T1, cholesterol 25-hydroxylase (Mus musculus, UniProt Q9Z0F5); experiment: 25-hydroxylase activity in CHOP cells transfected with the murine cDNA; type: cell-based; settings: treatment of transfected CHOP cells
T1 construct: a full-length mouse 25-hydroxylase cDNA fragment from plasmid pCMV-m25; expressed in transfected cells; host or cells: CHOP cells (CHO derivative expressing polyoma middle T antigen)
T1 sequence (Q9Z0F5 1-298): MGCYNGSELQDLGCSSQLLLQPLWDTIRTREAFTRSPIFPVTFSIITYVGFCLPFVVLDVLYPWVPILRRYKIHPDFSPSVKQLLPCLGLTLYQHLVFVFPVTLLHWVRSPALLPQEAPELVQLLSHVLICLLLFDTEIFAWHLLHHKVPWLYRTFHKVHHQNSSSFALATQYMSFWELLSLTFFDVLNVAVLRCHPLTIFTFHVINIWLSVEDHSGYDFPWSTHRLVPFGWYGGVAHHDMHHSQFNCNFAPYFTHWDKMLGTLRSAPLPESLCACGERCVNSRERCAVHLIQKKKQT
Protocol: (§2) Measurement of cholesterol 25-hydroxylase activity in whole cells—The transfection medium containing the cationic lipid was aspirated and replaced with 3 ml of Medium B (DMEM containing 10% newborn calf lipoprotein-poor serum, 100 u/ml penicillin, and 100 μg/ml streptomycin sulfate) supplemented with 5 μI of [4-^14C]cholesterol (56.6 mCi/mmol; 0.040 μCi/μl; New England Nuclear, Boston, Mass.). Cells were incubated for a further 60 h at 37° C. in an atmosphere of 8.8% CO2.
as §1
Inhibitor Studies—Transfection of CHOP cells was carried out as described above with the following exceptions. […] Cells and/or cells plus medium were harvested at the indicated times, extracted, and the conversion of substrate into [4-^14C]25-hydroxycholesterol product was determined by thin layer chromatography as described above. […]

[4] = target: T2, human 25-hydroxylase (Homo sapiens, UniProt O95992); experiment: 25-hydroxylase activity in 293 cells transfected with the human cDNA; type: cell-based; settings: treatment of transfected 293 cells
T2 construct: expressed in transfected cells; host or cells: human embryonic kidney 293 cells
T2 sequence (O95992 1-272): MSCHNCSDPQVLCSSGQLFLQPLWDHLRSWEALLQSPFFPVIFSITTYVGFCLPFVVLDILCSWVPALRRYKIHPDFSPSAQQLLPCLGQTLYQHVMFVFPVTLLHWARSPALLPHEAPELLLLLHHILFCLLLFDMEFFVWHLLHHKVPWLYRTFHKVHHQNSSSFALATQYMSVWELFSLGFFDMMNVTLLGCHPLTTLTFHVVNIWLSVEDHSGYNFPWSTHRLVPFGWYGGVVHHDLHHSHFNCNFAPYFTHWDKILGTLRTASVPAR
Protocol: as §2, §1
This EST was used to isolate a near full-length cDNA encoding the human 25-hydroxylase as described in Experimental Procedures. Transfection into 293 cells of the human cDNA cloned in a pCMV6 vector produced abundant 25-hydroxylase enzyme activity.

| Compound | rank order of inhibition of cholesterol 25-hydroxylase [1] | also measured |
| --- | --- | --- |
| CC(C)CCC[C@@H](C)[C@H]1CC[C@H]2[C@@H]3CC[C@H]4C[C@@H](O)CC[C@]4(C)[C@H]3CC[C@]12C [cholestanol, 5α-cholestan-3β-ol] | desmosterol>cholestanol>25-hydroxycholesterol>epicholesterol>sitosterol>>coprostanol=25-oxo-27-nor-cholesterol |  |
| CC(C)=CCC[C@@H](C)[C@H]1CC[C@H]2[C@@H]3CC=C4C[C@@H](O)CC[C@]4(C)[C@H]3CC[C@]12C [desmosterol, 5,24-cholestadien-3β-ol] | desmosterol>cholestanol>25-hydroxycholesterol>epicholesterol>sitosterol>>coprostanol=25-oxo-27-nor-cholesterol | decrease of enzyme activity [1]: 30% |
| CC(=O)CCC[C@@H](C)[C@H]1CC[C@H]2[C@@H]3CC=C4C[C@@H](O)CC[C@]4(C)[C@H]3CC[C@]12C [25-oxo-27-nor-cholesterol, 27-nor-25-oxo-5-cholesten-3β-ol] | desmosterol>cholestanol>25-hydroxycholesterol>epicholesterol>sitosterol>>coprostanol=25-oxo-27-nor-cholesterol |  |
| C[C@H](CCCC(C)(C)O)[C@H]1CC[C@H]2[C@@H]3CC=C4C[C@@H](O)CC[C@]4(C)[C@H]3CC[C@]12C [25-hydroxycholesterol, cholest-5-ene-3β,25-diol] | desmosterol>cholestanol>25-hydroxycholesterol>epicholesterol>sitosterol>>coprostanol=25-oxo-27-nor-cholesterol | potency as regulator of gene transcription among natural oxysterols [2]: most potent regulator of gene transcription |
| 2-hydroxypropyl-β-cyclodextrin |  | stimulation of 25-hydroxylase activity [3]: approximately 10 fold; stimulation of 25-hydroxylase activity [4]: approximately five-fold |
| CC(C)CCC[C@@H](C)[C@H]1CC[C@H]2[C@@H]3CC=C4C[C@H](O)CC[C@]4(C)[C@H]3CC[C@]12C [epicholesterol, 5-cholesten-3α-ol] | desmosterol>cholestanol>25-hydroxycholesterol>epicholesterol>sitosterol>>coprostanol=25-oxo-27-nor-cholesterol |  |
| CC[C@H](CC[C@@H](C)[C@H]1CC[C@H]2[C@@H]3CC=C4C[C@@H](O)CC[C@]4(C)[C@H]3CC[C@]12C)C(C)C [sitosterol, 5-cholesten-24β-ethyl-3β-ol] | desmosterol>cholestanol>25-hydroxycholesterol>epicholesterol>sitosterol>>coprostanol=25-oxo-27-nor-cholesterol |  |
| CC(C)CCC[C@@H](C)[C@H]1CC[C@H]2[C@@H]3CC[C@@H]4C[C@@H](O)CC[C@]4(C)[C@H]3CC[C@]12C [coprostanol, 5β-cholestan-3β-ol] | desmosterol>cholestanol>25-hydroxycholesterol>epicholesterol>sitosterol>>coprostanol=25-oxo-27-nor-cholesterol | decrease of enzyme activity [1]: did not inhibit the enzyme |
